{"source": "patent US7410975B2", "about": "“Small molecule toll-like receptor (TLR) antagonists” (Coley Pharmaceutical Group, Inc., priority 2003, dated 2008)", "molecular_target": "T1, human TLR3 (hTLR3) (Homo sapiens, UniProt O15455)", "T1 construct": "expressed in transfected cells", "T1 sequence (O15455 24-904)": "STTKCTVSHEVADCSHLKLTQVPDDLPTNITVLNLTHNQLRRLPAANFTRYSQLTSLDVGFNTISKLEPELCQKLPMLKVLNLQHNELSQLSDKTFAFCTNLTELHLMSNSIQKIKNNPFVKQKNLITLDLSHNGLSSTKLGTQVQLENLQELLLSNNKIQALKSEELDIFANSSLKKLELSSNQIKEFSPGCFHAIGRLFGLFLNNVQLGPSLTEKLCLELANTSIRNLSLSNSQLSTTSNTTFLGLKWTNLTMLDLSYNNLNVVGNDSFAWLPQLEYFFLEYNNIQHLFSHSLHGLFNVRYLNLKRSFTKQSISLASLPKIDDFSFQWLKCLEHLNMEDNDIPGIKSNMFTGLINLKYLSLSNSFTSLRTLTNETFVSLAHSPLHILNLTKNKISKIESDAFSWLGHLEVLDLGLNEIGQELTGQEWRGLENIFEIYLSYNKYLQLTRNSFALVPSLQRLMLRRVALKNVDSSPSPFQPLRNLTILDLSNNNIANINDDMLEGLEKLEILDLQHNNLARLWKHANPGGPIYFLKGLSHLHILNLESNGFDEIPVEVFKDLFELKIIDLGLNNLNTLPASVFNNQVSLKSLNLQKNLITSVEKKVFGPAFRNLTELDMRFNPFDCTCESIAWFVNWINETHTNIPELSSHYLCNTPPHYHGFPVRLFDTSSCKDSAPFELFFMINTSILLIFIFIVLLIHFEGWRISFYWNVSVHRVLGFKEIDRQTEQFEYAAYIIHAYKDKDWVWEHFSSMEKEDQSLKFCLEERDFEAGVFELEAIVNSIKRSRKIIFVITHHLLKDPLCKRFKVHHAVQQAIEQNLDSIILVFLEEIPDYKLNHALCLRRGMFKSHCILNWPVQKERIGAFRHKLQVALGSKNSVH", "assay": "Antagonist screen, hTLR3-NFκB-293 cells, NF-κB-luciferase reporter, with EC50 of poly(I:C)", "type": "cell-based", "conditions": "compound at 0.5, 5, 50 μg/ml; EC50 concentration of poly(I:C); 16 h; NF-κB-luciferase", "experimental": "The method is described in greater detail as follows. The cells for each individual cell clone (hTLR3-NFκB-293, hTLR7-NFκB-293, hTLR8-NFκB-293 and hTLR9-NFκB-293) were counted and seeded one day before the stimulation at 1.5×10^4 cells per well in 96-well cell culture plates. To become adherent the cells were incubated after seeding overnight at 37° C. in 5% CO2 humidified air.\nThe screen for each compound was performed at the same time for all of the receptors TLR3, TLR7, TLR8 and TLR9. Up to fifteen test compounds, each assayed in duplicate at each of three different final concentrations (0.5 μg/ml, 5 μg/ml, and 50 μg/ml), were used for 16 h cell stimulation on a single multiwell culture plate. A 4× final concentration master plate was created to prepare the different test compounds before they were added to the cells.\nControls were added as duplicates individually for each cell clone on the cell culture plate. Positive controls were used as follows (final concentrations): 50 μg/ml poly(I:C) for hTLR3-NFκB-293; 8 μM resiquimod (R848) for hTLR7-NFκB-293; 30 μM R848 for hTLR8-NFκB-293; and 2.5 μM CpG-ODN 2006 for hTLR9-NFκB-293. Media alone was used as negative control. After addition of controls and small molecules, the cell clones were additionally stimulated with the EC50 concentration of the appropriate receptor-specific ligand.\nThe mean value of wells H2 and H5 (each with cells and EC50 concentration of the appropriate receptor-specific ligand) divided by the mean of wells H3 and H6 (each with cells alone) yielded the baseline response (i.e., fold induction of luciferase activity) to EC50 concentration of the appropriate receptor-specific ligand.\nAfter 16 h stimulation the supernatant was removed and the cells treated with lysis buffer and stored at −80° C. before measuring.\nFor each screen result a graphical documentation was performed.\nThe baseline result (measured with addition of the EC50 concentration of the receptor-specific ligand) for each cell culture plate was measured as described above. Antagonistic effects were measured by down regulation compared to the baseline. Antagonists were scored as follows: • 13: compounds for which there was clear down regulation at 0.5 μg/ml, 5 μg/ml, and 50 μg/ml; • 12: compounds for which there was clear down regulation at 5 μg/ml and 50 μg/ml; • 11: compounds for which there was clear down regulation only at 50 μg/ml; • —: compounds for which there was no clear down regulation even at 50 μg/ml. Agonists\nResults were expressed as fold induction over baseline luciferase activity measured in the absence of poly(I:C). […] Additional screening was performed in like manner using additional small molecules selected from another library or specifically prepared for this purpose. Scoring is reported as above but as applied to TLR3."}
{"molecule": "O=C1c2ccccc2C(=O)c2c1ccc1c(=O)n(C3CCCCC3)[nH]c21", "note": "[compound 1015]", "values": [{"measurement": "hTLR3 (inhibitory effect, antagonist score)", "value": "— (compounds for which there was no clear down regulation even at 50 μg/ml)"}]}
{"molecule": "CCOC(=O)c1cc([N+](=O)[O-])cc2c1-c1ccc([N+](=O)[O-])cc1C2=C(C#N)C#N", "note": "[compound 1039]", "values": [{"measurement": "hTLR3 (inhibitory effect, antagonist score)", "value": "— (compounds for which there was no clear down regulation even at 50 μg/ml)"}]}
{"molecule": "O=C1c2ccccc2C(=O)c2c1ccc1c(=O)n(-c3ccccc3)[nH]c21", "note": "[compound 1042]", "values": [{"measurement": "hTLR3 (inhibitory effect, antagonist score)", "value": "11 (compounds for which there was clear down regulation only at 50 μg/ml)"}]}
{"molecule": "O=C(c1cccc2c1-c1ccccc1/C2=N\\O)N1CCCCC1", "note": "[compound 1050]", "values": [{"measurement": "hTLR3 (inhibitory effect, antagonist score)", "value": "12 (compounds for which there was clear down regulation at 5 μg/ml and 50 μg/ml)"}]}
{"molecule": "NC(=O)c1cccc2c1-c1ccccc1C2", "note": "[compound 1132]", "values": [{"measurement": "hTLR3 (inhibitory effect, antagonist score)", "value": "11 (compounds for which there was clear down regulation only at 50 μg/ml)"}]}
{"molecule": "NC(=O)c1cc(N)c2c(c1N)C(=O)c1ccccc1C2=O", "note": "[compound 1158]", "values": [{"measurement": "hTLR3 (inhibitory effect, antagonist score)", "value": "— (compounds for which there was no clear down regulation even at 50 μg/ml)"}]}
{"molecule": "CC(=O)Oc1cc(C)c(C2(c3cc(C(C)C)c(OC(C)=O)cc3C)OC(=O)c3ccccc32)cc1C(C)C", "note": "[compound 1161]", "values": [{"measurement": "hTLR3 (inhibitory effect, antagonist score)", "value": "12 (compounds for which there was clear down regulation at 5 μg/ml and 50 μg/ml)"}]}
{"molecule": "COC(=O)c1cccc(C(O)(c2ccccc2)c2ccccc2)c1S(=O)(=O)C(C)(C)C", "note": "[compound 1187]", "values": [{"measurement": "hTLR3 (inhibitory effect, antagonist score)", "value": "12 (compounds for which there was clear down regulation at 5 μg/ml and 50 μg/ml)"}]}
{"molecule": "CCOCCOC(=O)c1cc([N+](=O)[O-])cc2c1-c1c(cc([N+](=O)[O-])cc1[N+](=O)[O-])C2=C(C#N)C#N", "note": "[compound 1241]", "values": [{"measurement": "hTLR3 (inhibitory effect, antagonist score)", "value": "11 (compounds for which there was clear down regulation only at 50 μg/ml)"}]}
{"molecule": "CC1CCN(C(=O)c2cccc3c2-c2ccccc2C3=O)CC1", "note": "[compound 1243]", "values": [{"measurement": "hTLR3 (inhibitory effect, antagonist score)", "value": "— (compounds for which there was no clear down regulation even at 50 μg/ml)"}]}
{"molecule": "Cc1cccc(C2(c3cccc(C)c3)OC(=O)c3ccccc32)c1", "note": "[compound 1308]", "values": [{"measurement": "hTLR3 (inhibitory effect, antagonist score)", "value": "12 (compounds for which there was clear down regulation at 5 μg/ml and 50 μg/ml)"}]}
{"molecule": "COCCCNC(=O)c1ccc2c(c1N)C(=O)c1ccccc1C2=O", "note": "[compound 1337]", "values": [{"measurement": "hTLR3 (inhibitory effect, antagonist score)", "value": "11 (compounds for which there was clear down regulation only at 50 μg/ml)"}]}
{"molecule": "O=C1Nc2ccccc2Oc2ccc([N+](=O)[O-])cc21", "note": "[compound 1352]", "values": [{"measurement": "hTLR3 (inhibitory effect, antagonist score)", "value": "— (compounds for which there was no clear down regulation even at 50 μg/ml)"}]}
{"molecule": "Flunarizinehydrochloride [compound 312]", "values": [{"measurement": "hTLR3 (inhibitory effect, antagonist score)", "value": "11 (compounds for which there was clear down regulation only at 50 μg/ml)"}]}
{"molecule": "Maprotilinehydrochloride [compound 346]", "values": [{"measurement": "hTLR3 (inhibitory effect, antagonist score)", "value": "11 (compounds for which there was clear down regulation only at 50 μg/ml)"}]}
{"molecule": "Metixene hydrochloride [compound 491]", "values": [{"measurement": "hTLR3 (inhibitory effect, antagonist score)", "value": "12 (compounds for which there was clear down regulation at 5 μg/ml and 50 μg/ml)"}]}
{"molecule": "Prochlorperazinedimaleate [compound 399]", "values": [{"measurement": "hTLR3 (inhibitory effect, antagonist score)", "value": "12 (compounds for which there was clear down regulation at 5 μg/ml and 50 μg/ml)"}]}
{"molecule": "Trifluoperazinedihydrochloride [compound 313]", "values": [{"measurement": "hTLR3 (inhibitory effect, antagonist score)", "value": "— (compounds for which there was no clear down regulation even at 50 μg/ml)"}]}
